In patent US8084262B2, “Biomarker for farnesyl pathway” (Hoffmann-La Roche Inc., priority 2006, dated 2011):
Read-outs that look alike come from different tables or passages of the source.

What was measured:
N-acetyl-felinine [1] = experiment: Determination of N-acetyl-felinine in rat urine by NMR; assay type: in vivo, Sprague Dawley rats; details: for N-acetyl-felinine levels in urine: in a given time interval after stimulation
Procedure: (§1) Urine samples were collected in metabolism cages at 0 to 4° C. (automatically refrigerated by a Tecniplast sampling/cooling unit) at the intervals given in the sampling schedule below into sample tubes containing 1 ml of an aqueous Cs-azide (1%) solution. Before aliquoting, urine volumes were determined.
(§2) Immediately after reaching the end of the sampling period, the volume was determined and the samples were centrifuged at 3000 u/min [500 g] for 10 min.
N-acetyl-felinine was identified in urine samples on basis of 1D and 2D NMR spectra. Spectra were acquired at 600.13 MHz on a Bruker AV 600 spectrometer and at 500.13 MHz on Bruker DRX-500 spectrometer. Urine samples were prepared and measured and the data evaluated as described elsewhere (Keun, H. C.; Ebbels, T. M. D.; Antti, H.; Bollard, M. E.; Beckonert, O.; Schlotterbeck, G.; Senn, H,; Niederhauser, U.; Holmes, E.; Lindon, J. C.; Nicholson, J. K. Chem. Res. Toxicol. 2002, 15, 1380-1386).
Aliquots of 400 microliter urine are transferred into well plates. For adjustment of urinary pH 200 microliter of buffer [ca. 0.2M Na2HPO4/NaH2PO4, ca. 1 mM TSP (3-trimethylsilyl-D4-propionic acid), ca. 3 mM sodium azide] is added to each well. Prepared well plates are centrifuged at ca. 3,000 rpm at 4° C. for 5-10 min to remove insoluble material.
^1H NMR spectra for Metabonomic analysis (e.g. at 500 Mhz, 64 k data points, 12019.2 Hz spectral width) were measured at 300K. The water resonance were suppressed by use of standard pulse-sequences (e.g noesyprld, irradiation for 2 s relaxation delay and during 100 ms mixing time). For each sample as many transients were added as is needed to provide spectra high enough in signal to noise. Fourier transformation was done by use of a matched window function (e.g. lb=1) followed by (automatic or manual) phasing and base-line correction. Referencing was done with respect to TSP added (defined as 0.0 ppm). Acquisition and processing of spectra was performed with Bruker XWinNMR 3.5 software.
Each spectrum recorded was reduced in size for simplified statistical analysis (e.g. For NMR spectra recorded according to the standard protocol 245 variables will be calculated by equidistant integration between 0.2-10.0 ppm). Regions containing misleading information (e.g. solvents, urea cover a region for 4.5 up to 6.0 ppm) were excluded or merged (e.g. the region from 2.66 to 2.74 ppm serves as a value indicative for citrate) prior to analysis. To take account variations in urine concentration, all data-reduced spectra were normalised to a constant integrated intensity of 100 units.
Thereby widespread PCA (principal component analysis) is used for identifying significant patterns of signals and assigning these patterns to samples and groups of samples. PLS (projection to latent structures, partial least squares) is also used for finding significant patterns of signals, whereby in contrast to PCA the information of dose-groups is used for boosting the identification of significant changes. The assignment is performed with the help of an internal data base of metabolites, with the help of pathway mapping procedures (KEGG database) and with the help of a spectroscopic structure elucidation for unknown metabolites when feasible.

N-acetyl-felinine [2] = experiment: Determination of N-acetyl-felinine in rat urine by LC-MS; assay type: in vivo, Sprague Dawley rats; details: for LC-MS signal for expected mass of N-acetyl felinine (m/z 248 in neg. mode): rat urine, 96 h after dosing
Procedure: as §1, §2
LC-MS analysis of urine was performed using an Agilent 1100 HPLC system coupled to a Bruker Esquire 3000+ mass spectrometer equipped with an electrospray interface. Urine samples were diluted 4-fold with distilled water and 2 μl injections were made from a well plate maintained at 4° C. into a 150 mm×3.9 mm Waters Atlantis dC18 3 μm HPLC column maintained in an oven at 30° C. The column was eluted at a flow rate of 1 ml/min; mobile phase A consisted of 20 mM ammonium acetate, and mobile phase B of acetonitrile. […] The mass spectrometer was operated in negative mode with a dry gas flow of 81/min, nebulizer pressure of 27 psi and dry temperature of 330° C. The instrument was set to acquire over the mass range m/z 50-800. N-acetyl-felinine was found under this conditions at a retention time of 9.6 min with the expected m/z 248 (see FIG. 8) in samples of rats dosed with Zoledronate.

kidney and liver [3] = experiment: Histopathology of treated animals (kidney and liver toxicity)
kidney and liver [4] = details: rat, in vivo

| SMILES | N-acetyl-felinine in urine NMR spectra (N-acetyl-felinine [1]; 1D NMR, signal at 1.32 ppm, FIG. 5) | NMR signal at 1.32 ppm in urine (N-acetyl-felinine [1]; 96 h after dosing, FIG. 5) | N-acetyl-felinine levels in urine (N-acetyl-felinine [1]) | N-acetyl-felinine in urine by LC-MS (N-acetyl-felinine [2]; negative mode, urine samples of dosed rats) | LC-MS signal for expected mass of N-acetyl felinine (m/z 248 in neg. mode) (N-acetyl-felinine [2]; 6 mg/kg, FIG. 8) | kidney and liver toxicity in histopathology (kidney and liver [3]) | Time course of bin 1.32 ppm (Methyl signals of N-Acetyl felinine) relative to creatinine (N-acetyl-felinine [1]; rat urine NMR, FIG. 3) | LC-MS signal for expected mass of N-acetyl felinine (m/z 248 in neg. mode) (N-acetyl-felinine [2]; 3 mg/kg, FIG. 9) | kidney and liver toxicity in histopathology (kidney and liver [4]) |
| --- | --- | --- | --- | --- | --- | --- | --- | --- | --- |
| O=P(O)(O)C(O)(Cn1ccnc1)P(=O)(O)O [Zoledronate] | found | New signal at 1.32 ppm visible | high levels | found | Strong signal found | kidney and liver toxicity was observed | – | – | – |
| CCCCCN(C)CCC(O)(P(=O)(O)O)P(=O)(O)O [Ibandronate] | – | – | undetectable | – | – | – | no increase | No signal found | not so |
